The values below come from paper PMC4467461, “Small-molecule activation of SERCA2a SUMOylation for the treatment of heart failure” (Nature Communications, 2015).

Entries after “also recorded” stand apart in the source; their conditions may differ. Read-outs that look alike come from different tables or passages of the source.

The Cmax is the maximum level reached in the sampled fluid or tissue. A word on the bioavailability: it is the share of a dose that reaches the circulation, judged against a reference dose that is usually intravenous. As usually defined, the Tmax is the time from dosing to the highest level.

For data set [1], the system named is SERCA2a SUMOylation. The experiment in a line: Endogenous SERCA2a SUMOylation, SUMO-1 conjugates and Ubc9 in cardiomyocytes (immunoprecipitation / western blot). Format: cell-based, Sprague–Dawley rats. As for the experimental part: Figure 1 N106 increases SERCA2a’s cellular activity and SUMOylation in adult cardiomyocytes. In-vitro characterization of activators of SERCA2a SUMOylation. Cell-based screening of small molecules identified one promising compound. Adult ventricular cardiomyocytes were isolated from Sprague–Dawley rats and treated with small molecules on dose-dependent manner for 24 h. DMSO-treated cardiomyocytes were used as a negative control. (a) Chemical structure of SERCA2a SUMOylation activator. N106, N-(4-methoxybenzo[d]thiazol-2-yl)-5-(4-methoxyphenyl)-1,3,4-oxadiazol-2-amine. (b-g) The effects of N106 compound in cardiomyocyte contractility and calcium transient. The dose-dependent effects of N106 compound presented on peak shortening, the time to maximal departure velocity, the time to maximal return velocity, calcium ratio, decay time constant (τ) and the time to 90% baseline (t90) fluorescence in cardiomyocytes were assessed using a video-based edge-detection system (IonOptix Inc.). n=25 cardiomyocytes from each three of hearts per condition. (h) The effects of N106 compound on the ATPase activity of SERCA2a. The ATPase activity were measured at 25 °C in 50 mM MOPS, 100 mM KCl, 5 mM MgCl2, 1 mM […] at pCa 5.0 by using a coupled enzyme system consisting of pyruvate kinase and lactate dehydrogenase, and monitoring the oxidation of the reduced form of NADH at […]. The enzyme activity was determined by using same set of cardiomyocytes. (i) The effect of N106 compound for the formation of SUMOylated SERCA2a was determined using the same set of cardiomyocytes. Endogenous SERCA2a SUMOylation was detected by immunoprecipitation with anti-SERCA2a and then western blotting with anti-SUMO-1 antibodies. The experiments shown are representative of three independent experiments with similar results. (j) The effect of N106 compound on global SUMOylation was measured by western blot analysis with an anti-SUMO-1 antibody in the same set of cardiomyocytes. The experiments shown are representative of three independent western blottings. Data are represented as mean±s.e.m. (n=3 mice hearts per each condition). Data are represented as mean±s.e.m. *P≤0.05; **P<0.001 (Student’s t-test) from DMSO control.
Protein extracts (20∼50 μg) were obtained from isolated cardiomyocytes, which was lysed in RIPA buffer (R&D Systems Inc., MN, USA) contained protease inhibitors (Complete mini, Roche Diagnostics, IN, USA) and 20 mM NEM (Sigma-Aldrich). For SERCA2a SUMOylation assays, cardiac protein extracts were immunoprecipitated with a SUMO-1 agarose resin (Santa Cruz Biotechnology Inc., CA, USA) for overnight at 4 °C. The resins were washed with cold lysis buffer three times. The immunocomplexes were then resolved by SDS–PAGE and western blot analysis was performed using a SERCA2a-specific antibody. […]
treated with small molecules were determined: peak shortening (b) and calcium transient (c). […]

Data set [2] deals with SERCA2a. The experiment in a line: SERCA2a ATPase activity assay (coupled enzyme) in cardiomyocytes. Format: cell-based, Sprague–Dawley rats. As for the experimental part:
Figure 1 N106 increases SERCA2a’s cellular activity and SUMOylation in adult cardiomyocytes. In-vitro characterization of activators of SERCA2a SUMOylation. Cell-based screening of small molecules identified one promising compound. Adult ventricular cardiomyocytes were isolated from Sprague–Dawley rats and treated with small molecules on dose-dependent manner for 24 h. DMSO-treated cardiomyocytes were used as a negative control. (a) Chemical structure of SERCA2a SUMOylation activator. N106, N-(4-methoxybenzo[d]thiazol-2-yl)-5-(4-methoxyphenyl)-1,3,4-oxadiazol-2-amine. (b-g) The effects of N106 compound in cardiomyocyte contractility and calcium transient. The dose-dependent effects of N106 compound presented on peak shortening, the time to maximal departure velocity, the time to maximal return velocity, calcium ratio, decay time constant (τ) and the time to 90% baseline (t90) fluorescence in cardiomyocytes were assessed using a video-based edge-detection system (IonOptix Inc.). n=25 cardiomyocytes from each three of hearts per condition. […] The ATPase activity were measured at 25 °C in 50 mM MOPS, 100 mM KCl, 5 mM MgCl2, 1 mM […] at pCa 5.0 by using a coupled enzyme system consisting of pyruvate kinase and lactate dehydrogenase, and monitoring the oxidation of the reduced form of NADH at […]. The enzyme activity was determined by using same set of cardiomyocytes. […]

Data set [3] can be described thus: Single-dose pharmacokinetic profile. Format: in vivo, mice. As to conditions: male, mouse, plasma; for Cmax / half-life: 10 mg/kg. As for the experimental part:
The male mice were received with a small molecule N106 at 10 mg kg^−1 intravenously and 10 mg kg^−1 orally (PO). The bloods were corrected at 30 min, 1, 2 and 4 h after administration intravenously and at 30 min, 1, 2 and 4 h after treatment for oral administration studies. Plasma samples from these studies were extracted by plasma separator tube containing lithium heparin (BD Microcontainer, NJ, USA). Plasma concentrations of N106 were determined by HPLC analysis and pharmacokinetic parameters. Three mice for each time point were used.
Supplementary Figure 13. Pharmacokinetic profile of N106 following administration to mice. The murine PK profile of single dose of N106 (10 mg.kg-1) was determined following intravenously (IV) and oral (PO) administration and analysis of plasma samples was performed by high performance liquid chromatography. Data represents mean value of N106 plasma concentrations in mice. n = 3 mice per each time point. Cmax, maximum concentration; T ½, half time; Tmax, time to peak concentration.

Where [4] appears, read: 10 μM, 10∼30 min, sustained at 24 h.

Take `COc1ccc(-c2nnc(Nc3nc4c(OC)cccc4s3)o2)cc1` [Compound N106, N-(4-methoxybenzo[d]thiazol-2-yl)-5-(4-methoxyphenyl)-1,3,4-oxadiazol-2-amine]: the “endogenous SERCA2a SUMOylation” value in data set [1] (10 μM, 24 h) was “enhancement of endogenous SERCA2a SUMOylation; also recorded: significantly induced”. Also, in data set [1] (10 μM, 24 h), the “protein levels of E2 conjugation enzyme, Ubc9” value was “without upregulation of Ubc9”. The “SERCA2a SUMOylation, time course” value in data set [1] (setting [4]) was “increased”. The “whole SUMO-1 conjugates” value in data set [1] (in response to the concentration of N106, 24 h) was “increased”. Further, in data set [1] (increasing N106 concentration, 24 h), the “levels of SERCA2a SUMOylation” value is “increased”. The “SERCA2a’s ATPase activity, time course” value in data set [2] (setting [4]) was “increased”. In addition, the “SERCA2a ATPase activity” value in data set [2] (increasing N106 concentration, 24 h, pCa 5.0) is “increased”. Further, the Cmax in data set [3] (iv, mice, 10 mg kg^−1 intravenous) was determined as 2240 nM; in data set [3] (po, mice, 10 mg kg^−1 oral) it was 457 nM. The half-life in data set [3] (iv, mice, 10 mg kg^−1 intravenous, read-out: half-life) was found to be 65.4 min; in data set [3] (po, mice, 10 mg kg^−1 oral, read-out: terminal elimination half-life (t1/2)), 19 min. For the same compound, the bioavailability in data set [3] (oral, 10 mg kg^−1, mice, 10 mg kg^−1 PO vs IV, read-out: oral bioavailability (F%)) was found to be 56%. Besides, in data set [3] (mice, 10 mg kg^−1 oral), the Tmax is 30 min.
